Results published in patent US20210393677A1, “COMPOUNDS FOR MODULATION AND AS FUNCTIONAL REPLACEMENT OF ALPHAKETOGLUTARIC ACID (2OG)-DEPENDENT OXYGENASES” (priority 2018, published 2021).

Assays:
TET enzyme = test: cell-free TET assay (co-substrate function); format: biochemical; conditions: FIG. 16B
HCT116 IDH1+/+ cells = test: 2-HG content by LC-MS/MS in HCT116 IDH1+/+ cells; format: cell-based, human; conditions: ML309 10 μM, untreated 0.15
Description: Es is known that IDH1 mutations are connected with a modified IDH1 enzyme function that induces the excess production of neomorphous metabolite 2-hydroxyglutarate. In order to validate the increased frequency of 2-HG in HCT116 IDH1R132H/+ cells compared to HCT116 IDH1+/+ cells, the 2-HG content was analyzed by means of LC-MS/MS analysis (illustration 1). Intracellular 2-HG in IDH1R132H/+ cells was 56 times higher than in IDH1 wildtype cells (8.5 nmol/mg protein or 0.15 nmol/mg protein; 56 times higher; p<0.0001). Furthermore, the treatment with the IDH1 inhibitor ML309 (10 μM) led to a significant reduction of the oncometabolite 2-HG in the HCT116 IDH1R132H/+ cells to (0.3 nmol/mg protein) and to a lower degree of IDH1+/+ (0.04 nmol/mg protein) (Fig.). In contrast, DKA produced only minimum changes in the 2-HG concentrations in the mutated cells (5.9 nmol/mg protein). […] FIG. 10.
HCT116 (ATCC-Nr. CCL-247), a human colorectal carcinoma cell line, was acquired from the American Type Culture Collection (ATCC; https://www.atcc.org/). Human colon carcinoma cells HCT116 IDH1+/+ and HCT116 IDH1R132H/+ come from Horizon Discovery and were let us for test purposes. The cells were cultured in Dulbecco's Modified Eagle's Medium (DMEM) with 2 mM L-glutamine, supplemented with 10% fetal bovine serum (FBS), 45 IU/ml penicillin and 45 IU/ml streptomycin. […]

[1] = tested on: TET enzymes in IDH1R132H/+ cells; test: activation of TET enzymes in IDH1R132H/+ cells (5-hmdC levels); format: cell-based, human; conditions: IDH1R132H/+ cells (FIG. 11)
Description: Likewise, promotion of the secondary apoptosis occurs, which indicates the recovery of the cell function on a molecular level (cf. FIG. 11). The native 2-OG again enters into the normal cell metabolism and thus again inhibits the malignant derailment of the cell (secondary way of formation of 2-OG from glutamic acid is omitted).
Samples of genomic DNA (20 μg) were hydrolyzed with micrococcal nuclease from Staphylococcus aureus, bovine spleen phosphodiesterase, and bovine intestinal alkaline phosphatase (all from Sigma-Aldrich, Taufkirchen, Germany) to 2′-deoxynucleosides, as described, with modifications of the application. […] Then, DNA hydrolysates were centrifuged (5 min, 16,000×g), and 10 μL of the supernatants were used for the quantification of dC and 5-mdC stable marked references.
Compounds [15N2,13Cl]dC and 5-mdC-d3 (both from Toronto Research Chemicals, Toronto, Canada). […] Chromatographic conditions and settings of the ESI source were as described for the quantification of dC and 5-mdC [62]. […] The quantification of 5-hmdC with respect to the stable isotope-marked standard that were both eluted at 4.9 min from the LC column (the retention times of dC and 5-mdC were 4.7 or 6.0 min, respectively), was performed with the aid of the Multiple Reaction Monitoring (MRM) approach. […] For clear identification, further mass transitions were recorded. […]

SMILES | effect in the assay (TET enzyme) | intracellular 2-HG (HCT116 IDH1+/+ cells) [nmol/mg protein] | activation of the inhibited TET enzymes [1]
O=C(O)C(=O)C(O)C(O)C(O)CO (stereo not drawn) [2-ketogulonic acid] | dose-dependent effect | – | –
Cc1ccccc1C(C(=O)NC1CCCC1)N(C(=O)Cn1cnc2ccccc21)c1cccc(F)c1 (stereo not drawn) [ML309, reference compound] | – | 0.04 | does not activate
